Data published in patent US20180267043A1, “USE OF BIOMARKERS FOR PREDICTING CLINICAL SENSITIVITY TO CANCER TREATMENT” (CELGENE CORPORATION, priority 2014, published 2018).

Columns and labels:
FLAG-HA tagged CRBN = molecular target: T1, FLAG-HA tagged CRBN (Homo sapiens, UniProt Q96SW2); assay: Anti-FLAG immunoprecipitation of FLAG-HA CRBN from 293 HEK lysate, mass spectrometry; assay type: binding; details: 1 μM, whole cell lysate of 293 HEK cells, vs DMSO
T1 construct: HA; expressed in transfected cells
T1 sequence (Q96SW2 whole entry): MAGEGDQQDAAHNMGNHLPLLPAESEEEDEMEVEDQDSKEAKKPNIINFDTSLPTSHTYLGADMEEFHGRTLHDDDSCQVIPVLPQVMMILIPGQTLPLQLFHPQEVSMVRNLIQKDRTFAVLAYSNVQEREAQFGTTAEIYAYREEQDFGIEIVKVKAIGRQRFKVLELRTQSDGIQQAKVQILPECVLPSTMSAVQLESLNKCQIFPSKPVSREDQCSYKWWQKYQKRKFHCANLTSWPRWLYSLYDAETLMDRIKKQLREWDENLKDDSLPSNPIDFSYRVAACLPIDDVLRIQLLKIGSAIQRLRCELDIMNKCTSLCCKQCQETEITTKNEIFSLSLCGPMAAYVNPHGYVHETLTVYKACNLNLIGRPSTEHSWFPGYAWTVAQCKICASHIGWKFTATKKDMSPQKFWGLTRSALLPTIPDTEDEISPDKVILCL
Experimental: Whole cell lysate of 293 HEK cells stably expressing FLAG-HA tagged CRBN was treated with 1 μM Compound C or DMSO vehicle control. Proteins associated with FLAG-HA CRBN were immunoprecipitated with anti-FLAG affinity gel, separated on SDS-PAGE, silver-stained, and analyzed by mass spectrometry. […] Arrows point to the expected positions of DDB1, GSPT1, PABP1, and CRBN.

XBP1 and ATF6 pathways = assay: RNA level of XBP1 and ATF6 pathway components in KG1 cells; assay type: cell-based, human; details: KG1, 20 nM, 2, 4, or 6 hours
Experimental: The mechanism of Compound C-activated XBP1 and ATF6 pathways of UPR was studied in KG1 cells. Cells were treated with DMSO or 20 nM Compound C for 2, 4, or 6 hours. The RNA level of variant cellular components along the XBP1 and ATF6 pathways was measured and normalized with GAPDH.

[1] = tested on: normal peripheral blood mononuclear cell (PBMC); assay: Response of normal PBMC: GSPT1, ATF3, DDIT3 and apoptosis indicators; assay type: cell-based; details: 20 hours
Experimental: The response of PBMC to Compound C treatment was monitored by measuring the expression of GSPT1, ATF3, DDIT3, and downstream apoptosis indicators in PBMC. PBMCs were treated with 1 nM, 10 nM, 100 nM, or 1000 nM of Compound C for 20 hours. […] Thus, GSPT1, ATF3, DDIT3, cleaved Caspase-3, and cleaved PARP can serve as biomarkers predicting the toxicity of Compound C.

[2] = tested on: human CRBN isoform 2 (IKZF1/3, GSPT1/2 as substrates); assay: Substrate degradation in CRBN−/− cells expressing human CRBN isoform 2 or mutants; assay type: cell-based; details: CRBN−/− cells without human CRBN; 10 μM lenalidomide or 1 μM Compound C
Description: (§1) They were co-expressed together with GFP in CRBN −/− cells. These cells also expressed human CRBN isoform 2, or various specific mutants (hCRBNiso2 E376V, hCRBNiso2 V387I, or hCRBNiso2 W385A) by transfection with corresponding DNA.

[3] = molecular target: T2, human CRBN isoform 2 (IKZF1/3, GSPT1/2 as substrates) (Homo sapiens, UniProt Q96SW2); assay: as above; assay type: cell-based; details: cells expressing human CRBN isoform 2
T2 construct: expressed in transfected cells; host or cells: CRBN-/- cells (elsewhere: 293FT, CRISPR)
T2 sequence (Q96SW2 1-441 isoform Q96SW2-2): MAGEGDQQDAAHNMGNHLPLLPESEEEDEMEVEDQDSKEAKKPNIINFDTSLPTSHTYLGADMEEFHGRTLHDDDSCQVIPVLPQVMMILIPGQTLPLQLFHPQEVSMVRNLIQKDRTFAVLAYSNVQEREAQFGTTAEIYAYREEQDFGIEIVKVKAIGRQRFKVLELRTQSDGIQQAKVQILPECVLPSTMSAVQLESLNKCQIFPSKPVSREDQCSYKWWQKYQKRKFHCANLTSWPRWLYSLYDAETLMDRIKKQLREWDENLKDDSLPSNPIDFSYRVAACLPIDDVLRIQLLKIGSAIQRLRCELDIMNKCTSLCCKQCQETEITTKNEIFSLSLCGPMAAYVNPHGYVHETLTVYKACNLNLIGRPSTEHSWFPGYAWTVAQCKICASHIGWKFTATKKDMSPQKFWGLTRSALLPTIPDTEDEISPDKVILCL
T2 sequence (Q16531 whole entry partner, canonical isoform): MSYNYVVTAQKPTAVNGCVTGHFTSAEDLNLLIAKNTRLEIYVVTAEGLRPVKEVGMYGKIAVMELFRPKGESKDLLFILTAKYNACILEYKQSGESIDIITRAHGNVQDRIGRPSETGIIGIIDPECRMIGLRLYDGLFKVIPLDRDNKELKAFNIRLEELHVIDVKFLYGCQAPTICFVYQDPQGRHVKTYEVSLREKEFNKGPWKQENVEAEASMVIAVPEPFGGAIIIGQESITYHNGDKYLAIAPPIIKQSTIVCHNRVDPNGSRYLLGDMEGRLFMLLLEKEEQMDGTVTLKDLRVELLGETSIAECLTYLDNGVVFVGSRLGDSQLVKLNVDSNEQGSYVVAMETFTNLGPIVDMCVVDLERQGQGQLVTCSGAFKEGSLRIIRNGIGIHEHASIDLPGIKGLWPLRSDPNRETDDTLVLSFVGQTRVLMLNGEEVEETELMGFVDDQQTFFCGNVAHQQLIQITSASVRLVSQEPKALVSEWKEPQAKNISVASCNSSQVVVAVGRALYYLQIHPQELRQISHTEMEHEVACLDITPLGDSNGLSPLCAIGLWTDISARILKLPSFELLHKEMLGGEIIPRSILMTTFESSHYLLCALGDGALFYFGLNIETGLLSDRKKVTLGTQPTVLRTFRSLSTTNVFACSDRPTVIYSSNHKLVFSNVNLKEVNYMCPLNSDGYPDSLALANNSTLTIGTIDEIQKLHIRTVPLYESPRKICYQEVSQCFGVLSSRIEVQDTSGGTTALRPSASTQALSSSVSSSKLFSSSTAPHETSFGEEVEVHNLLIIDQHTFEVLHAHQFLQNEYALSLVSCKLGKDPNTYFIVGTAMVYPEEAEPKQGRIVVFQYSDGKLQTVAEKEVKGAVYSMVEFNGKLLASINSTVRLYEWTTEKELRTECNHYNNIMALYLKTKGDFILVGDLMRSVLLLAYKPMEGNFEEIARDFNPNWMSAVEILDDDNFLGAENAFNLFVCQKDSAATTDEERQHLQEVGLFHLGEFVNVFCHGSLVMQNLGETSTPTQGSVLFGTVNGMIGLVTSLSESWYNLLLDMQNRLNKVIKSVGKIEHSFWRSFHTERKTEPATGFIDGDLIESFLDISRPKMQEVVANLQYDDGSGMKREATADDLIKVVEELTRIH
Description: as §1

[4] = molecular target: T3, human CRBN isoform 2 (IKZF1/3, GSPT1/2 as substrates) (Homo sapiens, UniProt Q96SW2, E377V); assay: as above; assay type: cell-based; details: hCRBNiso2 E376V; 1 μM Compound C
T3 construct: expressed in transfected cells; host or cells: CRBN-/- cells (elsewhere: 293FT, CRISPR)
T3 sequence (Q96SW2 1-441 isoform Q96SW2-2 E376V): as the sequence (Q96SW2 1-441 isoform Q96SW2-2) above, with E376V counted along it
T3 sequence (Q16531 whole entry partner, canonical isoform): as the sequence (Q16531 whole entry partner, canonical isoform) above
Description: as §1

[5] = molecular target: T4, human CRBN isoform 2 (IKZF1/3, GSPT1/2 as substrates) (Homo sapiens, UniProt Q96SW2, V388I); assay: as above; assay type: cell-based; details: hCRBNiso2 V387I; 1 μM Compound C
T4 construct: expressed in transfected cells; host or cells: CRBN-/- cells (elsewhere: 293FT, CRISPR)
T4 sequence (Q96SW2 1-441 isoform Q96SW2-2 V387I): as the sequence (Q96SW2 1-441 isoform Q96SW2-2) above, with V387I counted along it
T4 sequence (Q16531 whole entry partner, canonical isoform): as the sequence (Q16531 whole entry partner, canonical isoform) above
Description: as §1

PERK/EIF2a/ATF4 pathway [6] = assay: mRNA expression of PERK/EIF2a/ATF4 pathway components in DF15 MM cells; assay type: cell-based, human; details: 20 nM
Experimental: Cells were treated with DMSO alone or 20 nM Compound C. After 5 or 10 hours, the expression level of various cellular components along UPR or apoptosis pathways was measured. […] Loss of BIP immunoreactivity indicates an induction of UPR.

[7] = tested on: GSPT1, BIP, ER stress or apoptosis pathways; assay: Expression level of ER stress and apoptosis components in 293FT HEK cells; assay type: cell-based, human; details: 20 hours
Experimental: CRBN+/+ and CRBN−/− cells were treated with DMSO alone, 1 nM, or 10 nM Compound C. After 20 hours, the expression level of various cellular components along the endoplasmic reticulum (ER) stress or apoptosis pathways was measured. […] BIP is an ER luminal KDEL protein that requires binding with KDEL receptor in the cis-Golgi to be retro-transported into the ER lumen for retention. Loss of GSPT1 leads to the inactivation of the eRF1/GSPT1 complex and therefore allows translation readthrough of de novo sysnthesized proteins such as BIP. Addition of extra residues to the BIP C-terminus blocks the recognization of KDEL motif and BIP C-terminal epitopes by the KDEL receptor and BIP C-terminal antibodies, respectively. […] BIP interacts with the ER luminal domain of UPR sensors PERK, IRE1, and ATF6 to prevent their activation. Reduction of BIP C-terminal immunoreactivity indicates a mislocalization of BIP, which presumably leads to its dissociation from PERK, IRE1, and ATF6 and induces UPR.

[8] = tested on: Acute Myelogenous Leukemia (AML3) cell line; assay: CellTiter-Glo cell viability assay after GSPT1 knockdown, AML3; assay type: cell-based, human
Experimental: The effect of depletion of GSPT1 on the anti-proliferative effect of Compound C was determined in human Acute Myelogenous Leukemia (AML3) cell line. Cells were infected with lentiviral vectors expressing control shRNA, shGSPT1-1 or shGSPT1-3 for 7 days and then treated with DMSO, Compound C in a titration from 0.0001 μM to 1 μM. Two days after treatment, cell proliferation was measured by CellTiter-Glo cell viability assay.

RPMI-8226 = assay: CellTiter-Glo cell viability assay after GSPT1 knockdown, RPMI-8226; assay type: cell-based, human; details: RPMI-8226 expressing shGSPT1-1 or shGSPT1-3 vs parental or control shRNA, 0.01 nM to 0.1 μM, day 9
Experimental: The effect of depletion of GSPT1 on the anti-proliferative effect of Compound C was determined in human multiple myeloma (MM) cell lines DF15 and RPMI-8226. Treatment compounds were titrated from 0.01 nM to 0.1 μM. Cell proliferation was measured by the CellTiter-Glo cell viability assay (RLU-Relative Luminescent Unit) at day 9 after GSPT1 knockdown by shGSPT1-1 or shGSPT1-3.

PERK/EIF2a/ATF4 pathway [9] = assay: mRNA level of PERK/EIF2a/ATF4 pathway components in KG1 cells; assay type: cell-based, human; details: KG1 cells (FIG. 18C)
[10] = PBMC, 1 nM, 10 nM, 100 nM, or 1000 nM

SMILES: Cc1ccc(NC(=O)NCc2ccc3c(c2)CN(C2CCC(=O)NC2=O)C3=O)cc1Cl (stereo not drawn) [Compound C, 1-(3-chloro-4-methylphenyl)-3-((2-(2,6-dioxopiperidin-3-yl)-1-oxoisoindolin-5-yl)methyl)urea]
- Proteins associated with FLAG-HA CRBN identified as CAPs (FLAG-HA tagged CRBN): PABP1, GSPT1/eRF3a, GSPT2/eRF3b, and HBS1L/eRF3c were identified as CAPs only when CRBN was bound with Compound C
- RNA level of ATF6 pathway components (XBP1) (XBP1 and ATF6 pathways): induces expression
- RNA level of XBP1 pathway components (SEC24D, DNAJB9, EDEM1, XBP1) (XBP1 and ATF6 pathways): induces expression
- Cleaved Caspase-3 [1, 10]: increasing cleaved Caspase-3
- Expression of GSPT1 [1, 10]: decreases the expression of GSPT1
- Level of p-EIF2α, ATF3 and DDIT3 [1, 10]: increases the level
- Apoptosis ([1]; normal PBMC): induces apoptosis
- Degradation of tested substrates (IKZF1/3, GSPT1/2) [2]: neither compound triggers degradation of any tested substrate
- Destruction of GSPT1/2 ([3]; 1 μM Compound C): induces destruction of IKZF1/3 and GSPT1/2
- Destruction of IKZF1/3 ([3]; 10 μM lenalidomide or 1 μM Compound C): induces destruction of IKZF1/3 and GSPT1/2
- Degradation of GSPT1/2 [4]: abolishes Compound C-induced degradation of GSPT1/2
- Degradation of IKZF1/3 [5]: abolishes Compound C-induced degradation of IKZF1/3
- Expression of ATF4, ATF3, DDIT3, PPP1R15A, and GADD45A (FIG. 16C) (PERK/EIF2a/ATF4 pathway [6]): Compound C-induced expression of ATF4, ATF3, DDIT3, PPP1R15A, and GADD45A
- Degradation of GSPT1 ([7]; 293FT CRBN+/+ cells, 1 nM or 10 nM): induces degradation of GSPT1 in CRBN+/+ cells
- Cellular components in acute apoptotic cell death ([7]; 293FT HEK cells): are not affected
- Immunoreactivity of BIP antibody that binds to BIP amino-terminal region ([7]; 293FT, 1 nM or 10 nM): is not affected
- Immunoreactivity of KDEL antibody and BIP carboxyl-terminus (BIP-CT) antibody ([7]; 293FT, 1 nM or 10 nM, dose dependent): dramatically decreased
- Anti-proliferative effect ([8]; AML3 (FIG. 12A)): exhibited anti-proliferative effect
- Anti-proliferative effect ([8]; AML3 expressing shGSPT1-1 or shGSPT1-3 vs parental or control shRNA, 0.0001 μM to 1 μM, two days): increased anti-proliferative effect
- Anti-proliferative effect (RPMI-8226): increased anti-proliferative effect
- mRNA level of ATF4, ATF3, DDIT3, PPP1R15A, GADD45A, TNFRSF1B, and TNFRSF10B (PERK/EIF2a/ATF4 pathway [9]): Compound C-induced expression of ATF4, ATF3, DDIT3, PPP1R15A, GADD45A, TNFRSF1B, and TNFRSF10B
